One block for each molecule: values may come before it.
Columns and labels:
Type in all cases: physicochemical, human
[1] = GC/MS of blood plasma sample: number of times of freezing and thawing (Table C); conditions: for Increase or decrease: detection intensity; for Rate of increase or decrease: detection intensity relative to 1 at 2 times
How it was run: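 EDTA plasma from a healthy subject, cooled within 1 min or after 5+ min, centrifuged 4 °C/3000 rpm/15 min, frozen, then freeze-thawed 2, 4, 6 or 10 times. Methoximated, trimethylsilylated samples run by GC/MS (BPX5 column, EI, MRM). Values are detection intensity relative to 2 freeze-thaw cycles set as 1.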

[2] = LC/MS of serum sample: number of times of freezing and thawing (Table M); set-up: key to Rate of increase or decrease: detection intensity relative to 1 at 2 freeze-thaw cycles; conditions: for Number of times when compound is affected / Increase or decrease: serum sample, LC/MS; for Number of times when compound is affected: detection intensity changed by 30% or more vs 2 times of freezing and thawing; for Increase or decrease: detection intensity vs 2 times of freezing and thawing
How it was run: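 Serum was isolated at room temperature after centrifugation at room temperature, 3500 rpm, 5 minutes, then frozen and freeze-thawed 2, 4, 6 or 10 times. LC/MS used a Discovery HS F5-3 column at 40° C with formic acid water/acetonitrile, electrospray MRM. Intensity is relative to 2 freeze-thaw cycles.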

[3] = LC/MS of blood plasma sample: time from blood collection to centrifugation (Table D); conditions: for Rate of increase or decrease: detection intensity relative to 1 at 15 minutes; for Rate of increase or decrease / Increase or decrease: blood collection to centrifugation; for Increase or decrease: detection intensity
How it was run: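 Healthy-subject blood (5 mL, EDTA) cooled and held at 4 °C before centrifugation (4 °C, 3000 rpm, 15 min), with plasma then frozen. LC/MS on Discovery HS F5-3 column at 40 °C, 0.1% formic acid water/acetonitrile, 0.25 mL/min, electrospray, MRM; intensities relative to 15 min collection-to-centrifugation set as 1.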

[4] = GC/MS of serum sample: number of times of freezing and thawing (Table I); set-up: key to Rate of increase or decrease / Rate of increase or decrease (first value, increase): detection intensity relative to 2 freeze-thaw cycles = 1
How it was run: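 Serum was isolated after centrifugation at room temperature (3500 rpm, 5 min), frozen, and put through 2, 4, 6 or 10 freeze–thaw cycles. Samples were methoxymated and trimethylsilylated, then run by electron-ionization GC/MS in MRM mode on a BPX5 column (60 to 330 °C). Detection intensity is given relative to the 2-cycle sample, set as 1.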

[5] = GC/MS of serum sample: time from centrifugation to isolation (Table H); set-up: key to Rate of increase or decrease / Rate of increase or decrease (first value, increase): detection intensity relative to 1 at 30 min centrifugation-to-isolation; conditions: for Rate of increase or decrease: detection intensity relative to 1 at 30 minutes; for Increase or decrease: detection intensity
How it was run: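 Blood was centrifuged at room temperature, 3500 rpm, 5 min, and the vessel left at room temperature for 30 min, 1 h or 6 h before serum isolation. Serum was methoxymated, trimethylsilylated and analysed by GC/MS with electron ionization in MRM mode; intensities expressed relative to the 30-min condition (=1).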

[6] = 4 times of freezing and thawing, relative to 1 at 2 times, different from individual to individual, first value (increase)
[7] = 4 times of freezing and thawing, relative to 1 at 2 times, different from individual to individual, second value (decrease)

Increase or decrease ([1]; freezing and thawing 6 times vs 2 times): Different from individual | Rate of increase or decrease (second value, decrease) ([1]; different from individual to individual, individuals with decrease, relative to 1 at 2 times, freezing and thawing 6 times): 0.51 | Rate of increase or decrease (first value, increase) ([1]; different from individual to individual, individuals with increase, relative to 1 at 2 times, freezing and thawing 6 times): 2.21 | Rate of increase or decrease [2, 6]: 1.37 | Rate of increase or decrease [2, 7]: 0.70 | Number of times when compound is affected [2]: 4 times | Increase or decrease [2]: Different from individual | Rate of increase or decrease ([3]; after 6 hours): 1.39 | Increase or decrease ([3]; after 6 hours vs 15 minutes): Increase
Compound: O=c1[nH]c(=O)c2[nH]cnc2[nH]1 [Xanthine]

Rate of increase or decrease ([1]; freezing and thawing 4 times): 3.07 | Increase or decrease ([1]; freezing and thawing 4 times vs 2 times): Increase | Rate of increase or decrease ([2]; 10 times of freezing and thawing, detection intensity relative to 1 at 2 times): 0.55 | Number of times when compound is affected [2]: 10 times | Increase or decrease [2]: Decrease | Rate of increase or decrease ([4]; detection intensity relative to 1 at 2 times, serum, GC/MS, freezing and thawing 4 times): 1.39 | Increase or decrease ([4]; detection intensity, serum, GC/MS, freezing and thawing 4 times vs 2 times): Increase | Rate of increase or decrease ([5]; after 1 hour): 0.66 | Increase or decrease ([5]; after 1 hour vs 30 minutes): Decrease | Increase or decrease ([3]; after 6 hours vs 15 minutes): Increase
Compound: CC(C)(CO)[C@@H](O)C(=O)NCCC(=O)O [Pantothenic acid]

Rate of increase or decrease [2, 6]: 1.35 | Rate of increase or decrease [2, 7]: 0.61 | Number of times when compound is affected [2]: 4 times | Increase or decrease [2]: Different from individual | Rate of increase or decrease ([4]; 10 times of freezing and thawing, relative to 1 at 2 times, different from individual to individual, first value (increase)): 1.47 | Rate of increase or decrease ([4]; 10 times of freezing and thawing, relative to 1 at 2 times, different from individual to individual, second value (decrease)): 0.66 | Number of times when compound is affected ([4]; serum sample, GC/MS, detection intensity changed by 30% or more vs 2 times of freezing and thawing): 10 times | Increase or decrease ([4]; serum sample, GC/MS, detection intensity vs 2 times of freezing and thawing): Different from individual | Rate of increase or decrease ([5]; after 1 hour): 1.36 | Increase or decrease ([5]; after 1 hour vs 30 minutes): Increase | Increase or decrease ([3]; after 4 hours vs 15 minutes): Different from individual | Rate of increase or decrease (second value, decrease) ([3]; different from individual to individual, individuals with decrease, relative to 1 at 15 minutes, collection to centrifugation, after 4 hours): 0.70 | Rate of increase or decrease (first value, increase) ([3]; different from individual to individual, individuals with increase, relative to 1 at 15 minutes, collection to centrifugation, after 4 hours): 3.84
Compound: O=c1[nH]cnc2nc[nH]c12 [Hypoxanthine]

Rate of increase or decrease ([1]; freezing and thawing 10 times): 1.42 | Increase or decrease ([1]; freezing and thawing 10 times vs 2 times): Increase | Rate of increase or decrease ([2]; 4 times of freezing and thawing, detection intensity relative to 1 at 2 times): 3.27 | Number of times when compound is affected [2]: 4 times | Increase or decrease [2]: Increase | Rate of increase or decrease ([4]; detection intensity relative to 1 at 2 times, serum, GC/MS, freezing and thawing 10 times): 2.94 | Increase or decrease ([4]; detection intensity, serum, GC/MS, freezing and thawing 10 times vs 2 times): Increase | Rate of increase or decrease ([5]; after 6 hours): 3.00 | Increase or decrease ([5]; after 6 hours vs 30 minutes): Increase | Rate of increase or decrease ([3]; after 4 hours): 0.52 | Increase or decrease ([3]; after 4 hours vs 15 minutes): Decrease
Compound: NC(=O)NC1NC(=O)NC1=O (stereo not shown) [Allantoin]

Reference: patent publication US20220146526A1, “METHOD FOR EVALUATING SAMPLE, ANALYSIS METHOD, METHOD FOR DETECTING DEGRADED SAMPLE, MARKER FOR DETECTING DEGRADED BLOOD PLASMA SAMPLE, AND MARKER FOR DETECTING DEGRADED SERUM SAMPLE” (SHIMADZU CORPORATION, priority 2019, published 2022)
